Target: T1, glucocorticoid receptor (GR) (Homo sapiens, UniProt P04150)
T1 construct: endogenous in cells; host or cells: HeLa (ATCC) cell lysate supernatant
T1 sequence (P04150 1-777): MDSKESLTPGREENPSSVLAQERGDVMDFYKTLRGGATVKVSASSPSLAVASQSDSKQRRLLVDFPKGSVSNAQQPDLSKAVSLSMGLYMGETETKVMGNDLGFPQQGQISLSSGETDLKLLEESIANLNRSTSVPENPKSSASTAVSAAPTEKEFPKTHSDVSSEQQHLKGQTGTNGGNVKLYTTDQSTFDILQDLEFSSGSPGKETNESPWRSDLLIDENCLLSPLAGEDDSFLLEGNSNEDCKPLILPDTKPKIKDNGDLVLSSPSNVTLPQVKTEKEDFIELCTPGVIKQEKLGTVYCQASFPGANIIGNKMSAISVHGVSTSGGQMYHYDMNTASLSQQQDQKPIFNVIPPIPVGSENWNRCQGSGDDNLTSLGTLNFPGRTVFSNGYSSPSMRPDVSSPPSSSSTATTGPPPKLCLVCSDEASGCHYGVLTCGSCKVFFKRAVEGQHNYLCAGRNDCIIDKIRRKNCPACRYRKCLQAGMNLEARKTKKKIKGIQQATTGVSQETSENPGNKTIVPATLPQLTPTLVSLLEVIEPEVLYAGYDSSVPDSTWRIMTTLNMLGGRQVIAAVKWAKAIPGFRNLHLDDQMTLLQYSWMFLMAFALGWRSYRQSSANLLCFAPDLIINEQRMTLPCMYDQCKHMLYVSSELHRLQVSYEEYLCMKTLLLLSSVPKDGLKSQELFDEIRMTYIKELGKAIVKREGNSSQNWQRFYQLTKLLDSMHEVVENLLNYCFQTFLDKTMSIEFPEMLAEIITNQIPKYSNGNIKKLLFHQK
Assay: Ligand binding assay (GR BIND), 3H-dexamethasone displacement, HeLa cell lysate
Protocol: Binding Buffer: TEGM (10 mM Tris-HCl, 1 mM EDTA, 10% glycerol, 1 mM beta-mercaptoethanol, 10 mM Sodium Molybdate, pH 7.2)
50% HAP Slurry: Calbiochem Hydroxylapatite, Fast Flow, in 10 mM Tris, pH 8.0 and 1 mM EDTA.
Wash Buffer: 40 mM Tris, pH7.5, 100 mM KCl, 1 mM EDTA and 1 mM EGTA.
Dexmethasone-methyl-^3H, (DEX*); (Amersham cat# TRK645)
Dexamethasone (DEX) (Sigma, cat# D1756):
Phenol red-free Trypsin-EDTA is diluted in the same PBS 1:10. The cell layers are rinsed with 1× Trypsin, extra Trypsin is poured out, and the cell layers are incubated at 37° C. for ˜2 min. The flask is tapped and checked for signs of cell detachment. Once the cells begin to slide off the flask, the complete media is added. The cells are counted at this point, then diluted to the appropriate concentration and split into flasks or dishes for further culturing (Usually 1:3 to 1:6 dilution).
Preparation of Hela Cell Lysate
The cell pellet is washed twice with TEGM (10 mM Tris-HCl, 1 mM EDTA, 10% glycerol, 1 mM beta-mercaptoethanol, 10 mM Sodium Molybdate, pH 7.2). After the final wash, the cells are resuspended in TEGM at a concentration of 10^7 cells/mL. The cell suspension is snap frozen in liquid nitrogen or ethanol/dry ice bath and transferred to −80° C. freezer on dry ice. Before setting up the binding assay, the frozen samples are left on ice-water to just thaw (˜1 hr). Then the samples are centrifuged at 12,500 g to 20,000 g for 30 min at 4° C. The supernatant is used to set-up assay right away. If using 50 μL of supernatant, the test compound can be prepared in 50 μL of the TEGM buffer.
Procedure for Multiple Compound Screening
1×TEGM buffer is prepared, and the isotope-containing assay mixture is prepared in the following order: EtOH (2% final concentration in reaction), 3H-DEX (Amersham Biosciences) and 1×TEGM. [e.g. For 100 samples, 200 μL (100×2) of EtOH+4.25 μL of 1:10 ^3H-Dex stock+2300 μL (100×23) 1×TEGM]. The compound is serially diluted, e.g., if starting final conc. is 1 μM, and the compound is in 25 μL of solution, for duplicate samples, 75 μL of 4×1 μM solution is made and 3 μL of 100 μM is added to 72 μL of buffer, and 1:5 serial dilution.
25 μL of ^3H-DEX (6 nM) trace and 25 μL compound solution are first mixed together, followed by addition of 50 μL receptor solution. The reaction is gently mixed, spun briefly at about 200 rpm and incubated at 4° C. overnight. 100 μL of 50% HAP slurry is prepared and added to the incubated reaction which is then vortexed and incubated on ice for 5 to 10 minutes. The reaction mixture is vortexed twice more to resuspend HAP while incubating reaction. The samples in 96-well format are then washed in wash buffer using The FilterMate™ Universal Harvester plate washer (Packard). The washing process transfers HAP pellet containing ligand-bound expressed receptor to Unifilter-96 GF/B filter plate (Packard). The HAP pellet on the filter plate is incubated with 50 μL of MICROSCINT (Packard) scintillant for 30 minutes before being counted on the TopCount microscintillation counter (Packard). IC50s are calculated using DEX as a reference.

[1] = Table 1, HeLa cell lysate, 3H-DEX
[2] = Table 2, prior-art comparison compounds

| SMILES | Ki [1] | Ki [2] |
| --- | --- | --- |
| C[C@]12Cc3cnn(-c4ccc(F)cc4)c3C=C1CC[C@@]2(O)CCc1ccccc1C(=O)NCC1CC1 [Example 37, N-(cyclopropylmethyl)-2-{2-[(4αS,5R)-1-(4-fluorophenyl)-5-hydroxy-4α-methyl-1,4,4α,5,6,7-hexahydrocyclopenta[r]indazol-5-yl]ethyl}benzamide] | 0.44 nM | – |
| C[C@]12Cc3cnn(-c4ccc(F)cc4)c3C=C1CC[C@@]2(O)CCc1cccc(Cl)c1CC(N)=O [Example 197, 2-(2-chloro-6-{2-[(4αS,5R)-1-(4-fluorophenyl)-5-hydroxy-4α-methyl-1,4,4α,5,6,7-hexahydrocyclopenta[f]indazol-5-yl]ethyl}phenyl)acetamide] | 1.41 nM | – |
| CCNC(=O)c1ccccc1CC[C@]1(O)CCC2=Cc3c(cnn3-c3ccc(F)c(F)c3)C[C@@]21C [Example 51, 2-{2-[(4αS,5R)-1-(3,4-difluorophenyl)-5-hydroxy-4α-methyl-1,4,4α,5,6,7-hexahydrocyclopenta[f]indazol-5-yl]ethyl}-N-ethylbenzamide] | 7.05 nM | – |
| Cc1ccc(C(N)=O)c(CC[C@]2(O)CCC3=Cc4c(cnn4-c4ccc(F)cc4)C[C@@]32C)c1 [Example 174, 2-{2-[(4αS,5R)-1-(4-fluorophenyl)-5-hydroxy-4α-methyl-1,4,4α,5,6,7-hexahydrocyclopenta[f]indazol-5-yl]ethyl}-4-methylbenzamide] | 4.76 nM | – |
| CCCNC(=O)c1c(F)cccc1CC[C@]1(O)CCC2=Cc3c(cnn3-c3ccc(F)cc3)C[C@@]21C [Example 49, 2-fluoro-6-{2-[(4αS,5R)-1-(4-fluorophenyl)-5-hydroxy-4α-methyl-1,4,4α,5,6,7-hexahydrocyclopenta[f]indazol-5-yl]ethyl}-N-propylbenzamide] | 0.81 nM | – |
| CC1(NC(=O)c2ccccc2CC[C@]2(O)CCC3=Cc4c(cnn4-c4ccccc4)C[C@@]32C)CC1 [Example 34, 2-{2-[(4αS,5R)-5-hydroxy-4α-methyl-1-phenyl-1,4,4α,5,6,7-hexahydrocyclopenta[f]indazol-5-yl]ethyl}-N-(1-methylcyclopropyl)benzamide] | 5.29 nM | – |
| C[C@H](CNC(=O)c1ccccc1CC[C@]1(O)CCC2=Cc3c(cnn3-c3ccc(F)cc3)C[C@@]21C)C(F)(F)F [Example 45, 2-{2-[(4αS,5R)-1-(4-fluorophenyl)-5-hydroxy-4α-methyl-1,4,4α,5,6,7-hexahydrocyclopenta[f]indazol-5-yl]ethyl}-N-[(2R)-3,3,3-trifluoro-2-methylpropyl]benzamide] | 1.02 nM | – |
| C=CCNC(=O)c1ccccc1CC[C@]1(O)CCC2=Cc3c(cnn3-c3ccc(F)cc3)C[C@@]21C [Example 33, N-allyl-2-{2-[(4αS,5R)-1-(4-fluorophenyl)-5-hydroxy-4α-methyl-1,4,4α,5,6,7-hexahydrocyclopenta[f]indazol-5-yl]ethyl}benzamide] | 1.13 nM | – |
| CC(C)CNC(=O)c1c(F)cccc1CC[C@]1(O)CCC2=Cc3c(cnn3-c3ccc(F)cc3)C[C@@]21C [Example 61, 2-fluoro-6-{2-[(4αS,5R)-1-(4-fluorophenyl)-5-hydroxy-4α-methyl-1,4,4α,5,6,7-hexahydrocyclopenta[f]indazol-5-yl]ethyl}-N-isobutylbenzamide] | 0.58 nM | – |
| C[C@]12Cc3cnn(-c4ccc(F)cc4)c3C=C1CC[C@@]2(O)CCc1cccc(F)c1CO [Example 148, (4αS,5R)-5-{2-[3-fluoro-2-(hydroxymethyl)phenyl]ethyl}-1-(4-fluorophenyl)-4α-methyl-1,4,4α,5,6,7-hexahydrocyclopenta[f]indazol-5-ol] | 0.67 nM | – |
| C[C@]12Cc3cnn(-c4ccc(F)cc4)c3C=C1CC[C@@]2(O)CCc1ccccc1C1(NS(=O)(=O)C2CC2)CC1 [Example 91, N-[1-(2-{2-[(4αS,5R)-1-(4-fluorophenyl)-5-hydroxy-4α-methyl-1,4,4α,5,6,7-hexahydrocyclopenta[f]indazol-5-yl]ethyl}phenyl)cyclopropyl]cyclopropanesulfonamide] | 0.26 nM | – |
| C=CCNC(=O)c1c(F)cccc1CC[C@]1(O)CCC2=Cc3c(cnn3-c3ccc(F)cc3)C[C@@]21C [Example 57, N-allyl-2-fluoro-6-{2-[(4αS,5R)-1-(4-fluorophenyl)-5-hydroxy-4α-methyl-1,4,4α,5,6,7-hexahydrocyclopenta[f]indazol-5-yl]ethyl}benzamide] | 0.61 nM | – |
| C[C@]12Cc3cnn(-c4ccc(F)cc4)c3C=C1CC[C@@]2(O)CCc1ccccc1 [Example 2 WO 2004/075840 A2, reference compound] | – | 5.24 nM |
| CC(C)(C)NC(=O)c1ccccc1CC[C@]1(O)CCC2=Cc3c(cnn3-c3ccc(F)cc3)C[C@@]21C [Example 62, N-(tert-butyl)-2-{2-[(4αS,5R)-1-(4-fluorophenyl)-5-hydroxy-4α-methyl-1,4,4α,5,6,7-hexahydrocyclopenta[f]indazol-5-yl]ethyl}benzamide] | 9.58 nM | – |

Next, values leading:

| Ki [1] | Ki [2] | SMILES |
| --- | --- | --- |
| 11 nM | – | CC(O)(C(N)=O)c1ccccc1CC[C@]1(O)CCC2=Cc3c(cnn3-c3ccc(F)cc3)C[C@@]21C (single isomer, unassigned) [Example 150] |
| 1.52 nM | – | CCCNC(=O)c1ccccc1CC[C@]1(O)CCC2=Cc3c(cnn3-c3ccc(F)cc3)C[C@@]21C [Example 30, 2-{2-[(4αS,5R)-1-(4-fluorophenyl)-5-hydroxy-4α-methyl-1,4,4α,5,6,7-hexahydrocyclopenta[f]indazol-5-yl]ethyl}-N-propylbenzamide] |
| – | 20.7 nM | C[C@]12Cc3cnn(-c4ccc(F)cc4)c3C=C1CC[C@@]2(O)CCc1ccccc1Cl [Example 40 WO 2004/075840 A2, reference compound] |
| – | 2.95 nM | C[C@]12Cc3cnn(-c4ccc(F)cc4)c3C=C1CC[C@@]2(O)CCc1ccccc1F [Example 70 WO 2004/075840 A2, reference compound] |
| 1.5 nM | – | CC(=O)Cc1ccccc1CC[C@]1(O)CCC2=Cc3c(cnn3-c3ccc(F)cc3)C[C@@]21C [Example 157, 1-(2-{2-[(4αS,5R)-1-(4-fluorophenyl)-5-hydroxy-4α-methyl-1,4,4α,5,6,7-hexahydrocyclopenta[f]indazol-5-yl]ethyl}phenyl)acetone] |
| 6.38 nM | – | CC(=O)Nc1ccccc1CC[C@]1(O)CCC2=Cc3c(cnn3-c3ccc(F)cc3)C[C@@]21C [Example 14, N-(2-{2-[(4αS,5R)-1-(4-fluorophenyl)-5-hydroxy-4α-methyl-1,4,4α,5,6,7-hexahydrocyclopenta[f]indazol-5-yl]ethyl}phenyl)acetamide] |
| 2.32 nM | – | C[C@]12Cc3cnn(-c4ccc(F)cc4)c3C=C1CC[C@@]2(O)CCc1ccccc1CC(N)=O [Example 107, 2-(2-{2-[(4αS,5R)-1-(4-fluorophenyl)-5-hydroxy-4α-methyl-1,4,4α,5,6,7-hexahydrocyclopenta[f]indazol-5-yl]ethyl}phenyl)acetamide] |
